Laboratory results as given in patent publication US20090232899A1, “Mucoadhesive nanocomposite delivery system” (priority 2004, published 2009).

Legend:
[1] = low pH, simulated gastric fluid; cited from earlier work

Procedure for NIH3T3 fibroblast cells: The NIH3T3 fibroblast cells were used for cytotoxicity testing by methyl thiazol-2-YL-2,5-diphenyl tetrazolium bromide (MTT) staining. After seven days, the cell-containing samples were rinsed with serum-free media to remove the unattached cells and were transferred to a new plate. Then, 250 μl MTT solution was added to each sample and incubated for 4 hours to induce MTT formazan formation. Purple formazan was extracted with dimethyl sulfoxide (DMSO), and was used for optical density (OD) measurement with a Thermomax ELISA reader at a wavelength of 540 nm with DMSO as a blank.

Row | Compound | Stability under the testing conditions, compared with amoxicillin [1] | Viability of fibroblasts, ratio (%) of absorbance of sample group to group without treatment (NT) (NIH3T3 fibroblast cells) [%]
1 | Cc1ncc([N+](=O)[O-])n1CCO [Metronidazole] | greater stability | 
2 | Chitosan |  | 90 ± 9
